Results reported in the supplement of paper PMC10307832.

What was measured:
Assay in all cases: relative viability (nuclei count vs DMSO), 5 days (fraction); higher = more cells survive
Ponatinib + Olaparib = compound: Cc1ccc(C(=O)Nc2ccc(CN3CCN(C)CC3)c(C(F)(F)F)c2)cc1C#Cc1cnc2cccnn12 [Ponatinib] + O=C(c1cc(Cc2n[nH]c(=O)c3ccccc23)ccc1F)N1CCN(C(=O)C2CC2)CC1 [Olaparib] (partner 8 µM)
Procedure, shortened: (§1)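 Medians of duplicate plates are given as relative viability. That measure is the nuclei count in treated wells divided by the count in vehicle wells. Counts were taken on 4× images of lung cancer cell lines in 1536-well plates, 5 days after pin-tool dosing the day after seeding with one drug alone or a fixed anchor-drug dose plus five library-drug doses (not always all listed) in √10 steps.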

Pazopanib + Trametinib = compound: Cc1ccc(Nc2nccc(N(C)c3ccc4c(C)n(C)nc4c3)n2)cc1S(N)(=O)=O [Pazopanib] + CC(=O)Nc1cccc(-n2c(=O)n(C3CC3)c(=O)c3c(Nc4ccc(I)cc4F)n(C)c(=O)c(C)c32)c1 [Trametinib] (partner 0.02 µM)
Procedure, shortened: as §1

Pazopanib + OSI-027 = compound: Cc1ccc(Nc2nccc(N(C)c3ccc4c(C)n(C)nc4c3)n2)cc1S(N)(=O)=O [Pazopanib] + COc1cccc2cc(-c3nc([C@H]4CC[C@H](C(=O)O)CC4)n4ncnc(N)c34)[nH]c12 [OSI-027] (partner 0.5 µM)
Procedure, shortened: as §1

Pazopanib + Crizotinib = compound: Cc1ccc(Nc2nccc(N(C)c3ccc4c(C)n(C)nc4c3)n2)cc1S(N)(=O)=O [Pazopanib] + C[C@@H](Oc1cc(-c2cnn(C3CCNCC3)c2)cnc1N)c1c(Cl)ccc(F)c1Cl [Crizotinib] (partner 1 µM)
Procedure, shortened: as §1

Row | Cell Line | relative viability (Ponatinib + Olaparib; first compound 0.002 µM) | relative viability (Ponatinib + Olaparib; first compound 0.006325 µM) | relative viability (Ponatinib + Olaparib; first compound 0.06325 µM) | relative viability (Ponatinib + Olaparib; first compound 0.2 µM) | relative viability (Pazopanib + Trametinib; first compound 0.1 µM) | relative viability (Pazopanib + Trametinib; first compound 0.3162 µM) | relative viability (Pazopanib + Trametinib; first compound 1 µM) | relative viability (Pazopanib + OSI-027; first compound 0.01 µM) | relative viability (Pazopanib + OSI-027; first compound 0.03162 µM) | relative viability (Pazopanib + OSI-027; first compound 0.1 µM) | relative viability (Pazopanib + OSI-027; first compound 0.3162 µM) | relative viability (Pazopanib + OSI-027; first compound 1 µM) | relative viability (Pazopanib + Trametinib; first compound 0.01 µM) | relative viability (Pazopanib + Trametinib; first compound 0.03162 µM) | relative viability (Pazopanib + Crizotinib; first compound 0.01 µM) | relative viability (Pazopanib + Crizotinib; first compound 0.03162 µM) | relative viability (Pazopanib + Crizotinib; first compound 0.1 µM) | relative viability (Pazopanib + Crizotinib; first compound 0.3162 µM) | relative viability (Pazopanib + Crizotinib; first compound 1 µM)
1 | NCI-H1648 | 0.49 | 0.897 | 0.572 | 0.51 | 0.452 | 0.454 | 0.427 | 0.24 | 0.219 | 0.242 | 0.271 | 0.235 | – | – | – | – | – | – | –
2 | NCI-H1395 | 0.446 | 0.425 | 0.47 | 0.433 | 1.05 | 1.01 | 0.952 | 0.606 | 0.741 | 0.605 | 0.616 | 0.706 | 0.833 | 1.14 | – | – | – | – | –
3 | NCI-H2347 | 0.546 | 0.604 | 0.625 | 0.547 | 0.303 | 0.282 | 0.281 | 0.425 | 0.465 | 0.402 | 0.405 | 0.344 | 0.211 | 0.281 | 0.885 | 0.643 | 0.662 | 0.691 | 0.842
4 | HCC-366 | 0.323 | 0.382 | 0.482 | 0.328 | 0.346 | 0.365 | 0.413 | 0.807 | 0.992 | 0.823 | 0.975 | 0.945 | 0.319 | 0.328 | 0.508 | 0.485 | 0.478 | 0.528 | 0.63
5 | 201T | 0.833 | 0.853 | 0.878 | 0.806 | 0.737 | 0.783 | 0.705 | 0.83 | 0.575 | 0.799 | 0.742 | 0.747 | 0.719 | 0.729 | 1.05 | 1.07 | 1.03 | 1.06 | 1.06
6 | HCC-827 | 0.719 | 0.644 | 0.709 | 0.687 | 0.546 | 0.547 | 0.559 | 0.775 | 0.752 | 0.784 | 0.801 | 0.731 | 0.558 | 0.551 | 0.999 | 0.976 | 0.906 | 0.902 | 0.922
7 | NCI-H650 | 0.344 | 0.417 | 0.452 | 0.401 | 0.984 | 1.13 | 1.13 | 0.464 | 0.523 | 0.517 | 0.544 | 0.482 | 0.942 | 0.918 | 0.755 | 0.907 | 0.608 | 0.784 | 0.603
8 | NCI-H2023 | 0.455 | 0.465 | 0.552 | 0.451 | 0.615 | 0.574 | 0.491 | 0.417 | 0.425 | 0.35 | 0.42 | 0.536 | 0.555 | 0.619 | 0.695 | 0.762 | 0.666 | 0.613 | 0.728
9 | NCI-H596 | 0.662 | 0.72 | 0.787 | 0.661 | 0.808 | 0.814 | 0.915 | – | 0.74 | 0.568 | 0.879 | 0.632 | 0.798 | 1.02 | 0.905 | 1.15 | 1.01 | 0.986 | 0.926
10 | SK-LU-1 | 0.36 | 0.491 | 0.535 | 0.388 | 0.516 | 0.54 | 0.54 | 0.452 | 0.345 | 0.385 | 0.395 | 0.352 | 0.42 | 0.499 | 0.952 | 1.02 | 1.14 | 0.976 | 0.852
11 | A-427 | 0.707 | 0.835 | 0.842 | 0.66 | 0.679 | 0.71 | 0.753 | 0.512 | 0.481 | 0.462 | 0.516 | 0.448 | 0.7 | 0.882 | 1.01 | 0.934 | 0.967 | 0.788 | 0.818
12 | NCI-H460 | 0.335 | 0.395 | 0.412 | 0.397 | 0.283 | 0.108 | 0.287 | 0.601 | 0.912 | 0.645 | 0.665 | 0.725 | 0.087 | 0.16 | 0.931 | 1.15 | 0.849 | 1 | 0.963
13 | NCI-H1703 | 0.37 | 0.449 | 0.262 | 0.207 | – | – | – | – | – | – | – | – | – | – | 0.587 | 0.628 | 0.261 | 0.215 | 0.221
14 | NCI-H1792 | 0.44 | 0.587 | 0.489 | 0.313 | 0.418 | 0.349 | 0.443 | – | 0.714 | 0.702 | 0.746 | 0.673 | – | 0.432 | – | 0.927 | 0.967 | 0.912 | 0.952
15 | Calu-6 | 0.541 | 0.556 | 0.497 | 0.493 | – | – | – | – | – | – | – | – | – | – | 0.853 | 0.821 | 0.81 | 0.764 | 0.762
